Results: PMC6345779, “Hypoculoside, a sphingoid base-like compound from Acremonium disrupts the membrane integrity of yeast cells” (Scientific Reports, 2019)

Columns and labels:
[1] = tested on: Candida albicans strain SC5314; assay: Broth microdilution growth inhibition of Candida albicans (CLSI guidelines, OD600 after 24 h); type: cell-based; settings: strain SC5314, OD600 nm after 24 hours, read-out: IC50 for inhibition of growth of C. albicans cells
Procedure: Figure 2 Hypoculoside has antifungal activity. (A) Workflow used in the purification and analysis of hypoculoside from Acremonium sp. F2434. (B) Structure of hypoculoside (8) and its aglycone derivative hypoculine (9). (C) Logarithmically growing Candida albicans cells were exposed to hypoculoside and amphotericin B at various concentrations in triplicates in a 96-well microplate. Growth of the cells was quantified by recording the absorbance at 600 nm after 24 hours. Growth (normalized with respect to DMSO-treated cells) is plotted against log of concentration of the compound. A picture of the microplate after 24 hours of incubation at 30 °C is shown in Supplementary Fig. S2A. (D) Effect of hypoculoside on the growth of Saccharomyces cerevisiae cells grown in YPD medium was analyzed in the similar way as for Candida albicans described above in C.
We evaluated the potency of hypoculoside by examining its effect on the growth of Candida albicans strain (SC5314) using the Clinical and Laboratory Standards Institute (CLSI) guidelines. We used the well-known antifungal amphotericin B as a positive control. We exposed logarithmically growing Candida albicans cells to hypoculoside and amphotericin B at various concentrations and monitored the growth by recording the OD600 nm after 24 hours. […]

[2] = tested on: Wild type strain (BY4743); assay: Rescue of myriocin-induced growth inhibition in yeast; type: cell-based, Saccharomyces cerevisiae
Procedure: Myriocin is an inhibitor of Serine palmitoyltransferase (SPT), which catalyzes the first step in the synthesis of sphingolipid biosynthesis. Addition of PHS or DHS can rescue inhibition caused by myriocin[28]. We tested whether hypoculoside can rescue the toxicity of myriocin–treated cells.
Wild type strain (BY4743) was grown in YPD medium containing different concentrations of myriocin and either phytosphingosine (PHS) or dihydrosphingosine (DHS) or hypoculoside (HYP) at the indicated concentrations. Normalized growth at the different concentrations after 24 hours of incubation at 30 °C is plotted for the various cultures.

[3] = tested on: Saccharomyces cerevisiae cells; assay: Recovery of yeast cells on compound-free YPD agar after treatment (cytocidal vs cytostatic); type: cell-based; settings: 21 µM for 24 h, then transfer to hypoculoside-free YPD agar plates
Procedure: We evaluated the potency of hypoculoside by examining its effect on the growth of Candida albicans strain (SC5314) using the Clinical and Laboratory Standards Institute (CLSI) guidelines. We used the well-known antifungal amphotericin B as a positive control. We exposed logarithmically growing Candida albicans cells to hypoculoside and amphotericin B at various concentrations and monitored the growth by recording the OD600 nm after 24 hours. […] We also tested the effect of hypoculoside on the growth of the Saccharomyces cerevisiae strain (BY4743). […] To test whether hypoculoside has cytocidal or cytostatic activity, we examined the ability of Saccharomyces cerevisiae cells to recover following treatment with either hypoculoside (21 µM) or DMSO for 24 h.
Legends for Supplementary figures and tables
Figure S1 Analysis of hypoculoside by MS/MS
Collision-Induced dissociation (CID) MS/MS fragmentation spectra of hypoculoside (8) generated at energies of 10 eV, 20 eV and 40 eV are depicted in panels A, B and C […]
Figure S2 Hypoculoside has antifungal, antibacterial and mammalian cytotoxic […]
B. Saccharomyces cerevisiae cultures in duplicate were treated with hypoculoside at the indicated concentrations in YPD medium at 30 °C for 24 hours. Growth of the yeast cultures as measured by OD600 nm is plotted against hypoculoside concentration. […]

**Q.** What does the source list for `CC(N)C(O)CCCCCCCCCCCCCCCCCCC(O)C(C)OC1OC(CO)C(O)C(O)C1O` (stereo not shown) [hypoculoside, Hypoculoside]?
**A.** IC50 [1]: 7.6 µM; rescue of myriocin-induced inhibition ([2]; hypoculoside at the concentrations of Fig. 6): did not rescue; combined effect with myriocin on growth ([2]; total effect = sum of individual effects): additive effect; cytocidal or cytostatic activity (ability to recover following treatment) [3]: cytocidal activity
